For this experiment, the system named is skin of the subject. Kind of experiment: Intradermal skin test for hypersensitivity to female reproductive hormones, case reports. The conditions noted are these: for Skin test result, Case 2: person one; for Skin test result, Case 6 / Skin test result, Case 7 / Skin test result, Case 4 / Skin test result, Case 1 / Skin test result, Case 5: person; for Skin test result, Case 6: menopausal syndrome; for Skin test result, Case 6 / Skin test result, Case 7: severe hot flashes; for Skin test result, Case 7: menopause; for Skin test result, Case 4: recurrent habitual abortions and severe PMS; for Skin test result, Case 1: severe premenstrual headaches, insomnia, acne; for Skin test result, Case 5: premenopausal syndrome, severe hot flashes and night sweats. Format: in vivo, human. The method, then:
The skin test included the use of three fractions of estrogen (E1, E2 and E3) and progesterone (P), along with suitable controls. Each hormone solution was intradermally administered at a volume of 20-160 μl.
Skin test method using estriol, estrone, estradiol and/or progesterone and monitoring the immediate, late and delayed immuno-reaction to the injected hormones
1. The hormones (Table 1) diluted in solvents (Table 2) and controls (Table 3) in the above described dosages were administered intradermally into subjects.
2. Timing of intradermal administration and evaluation of the skin reaction was dependent on the tested subject.
(i) In case of fertile woman: Intradermal administration of the hormones/controls initiated at the luteal phase of menstrual cycle;
Tracking (evaluation of skin reaction) was after 20 minutes, after 48 hours and daily during the next 30 day (or a complete menstrual cycle).
(ii) Other Cases (non-fertile subjects): Intradermal administration of the hormones/controls initiated at any time;
Tracking (evaluation of skin reaction) was after 20 minutes, after 48 hours and daily during the next 7 day.
3. Measurement of wheal diameter—The wheal is formed on the skin in response to the intradermal administration of the hormone. Since the wheal responses are rarely regular or circular the wheal diameter is calculated using the following formula I.
wheal diameter=(D+d)/2 Formula I: […]
where D is the maximum diameter and d is perpendicular diameter.
4. Comparison with the controls was as follows:
(i) In case of a negative reaction to histamine (wheal diameter smaller than 5 mm), the result indicates Familial Dysautonomia disease (the subject is advised to seek other treatment);
(ii) In case of a positive reaction to saline (wheal diameter equals or larger than 5 mm), the test should be repeated;
(iv) In case of a similar or smaller reaction (wheal diameter) as compared to solvent reaction, there is no sensitivity to the tested hormone and desensitization is optional;
(v) Exception—In case the skin reaction (wheal diameter) is larger than 20 mm, the subject should not be treated and is referred to testing of cancer, systemic auto-immune diseases and other serous diseases.
Following is a description of several cases of subjects which were diagnosed and treated according to the method of some embodiments of the invention. The concentrations of hormones used in the description of the following cases 1-7 and in Table 9 below were as follow:
E1 (Estrone)—3 mM (millimole/Liter); 0.811 grams/liter;
E2 —(estradiol)—1 mM (millimole/Liter); 0.3565 grams/liter;
E3 (estriol)—3 mM (millimole/Liter); 0.86514 grams/liter;
P (progesterone)—1 mM (millimole/Liter); 0.3144 grams/liter;

The mark [1] stands for this setting: habitual abortions and severe PMS.

Turning to 17 beta Estradiol Valerate, the “Skin test result, Case 6” value is “Hypersensitivity (delayed type after 48 hours and 5 days)”; the “Skin test result, Case 7” value is “delayed-type (after 48 hours and 6 days) hypersensitivity reaction”; the “Skin test result, Case 4” value is reported as “delayed-type hypersensitivity reaction”. For the same compound, the “Skin test result, Case 2” value under setting [1] is “positive delayed-type hypersensitivity reaction”. Moreover, the “Skin test result, Case 3” value (person two, habitual abortions and severe PMS) is “delayed-type hypersensitivity reaction”. Moreover, the “Skin test result, Case 1” value (BMI=31) was “delayed-type hypersensitivity reaction”.
Regarding `C[C@]12CC[C@@H]3c4ccc(O)cc4CC[C@H]3[C@@H]1C[C@@H](O)[C@@H]2O` [estriol, Estriol], the “Skin test result, Case 6” value was “Hypersensitivity (delayed type after 48 hours and 5 days)”; the “Skin test result, Case 5” value is “delayed-type hypersensitivity reaction (after 48 hours)”; the “Skin test result, Case 4” value was “delayed-type hypersensitivity reaction”. Further, for the setting “BMI=31”, the “Skin test result, Case 1” value is “delayed-type hypersensitivity reaction”.
Take `CC(=O)[C@H]1CC[C@H]2[C@@H]3CCC4=CC(=O)CC[C@]4(C)[C@H]3CC[C@]12C` [progesterone, Progesterone]: the “Skin test result, Case 7” value was “delayed-type (after 48 hours and 6 days) hypersensitivity reaction”; the “Skin test result, Case 5” value is reported as “delayed-type hypersensitivity reaction (after 48 hours)”; the “Skin test result, Case 4” value is on record as “delayed-type hypersensitivity reaction”. Further, under setting [1], the “Skin test result, Case 2” value was “positive delayed-type hypersensitivity reaction”. Also, where the note is “BMI=31, listed as Progesterone”, the “Skin test result, Case 1” value was “delayed-type hypersensitivity reaction to estriol and estradiol, higher than to Progesterone”.

Values taken from patent US20110262365A1 (priority 2008, published 2011).
